“Also recorded” adds a separate entry of the source.
How the values were obtained:
Balb c mice = test system: Balb c mice
Description: Balb c mice were injected intravenously with 200 nmol/mouse of the free 1v270 compound, the Cationic PEG 1v270 Lip formulation and the Cationic 1v270 Lip formulation. […] The AUC values calculated for each cytokine were used to determine I) the Toxicity Prediction with the IL-6/IFNα and IL-6/IL-12p70 ratios, and J) the immunogenicity score by the IFNα/IL-10 and IL-12p70/IL-10 ratios shown in arbitrary units. (n=5 mice/group, Students T-test was used, *p<0.05, **p<0.01, *** p<0.005, ns=non significant, error bars show SE).

[1] = test system: whole blood from healthy human donors; experiment: Cytokine secretion in ex vivo human whole blood (ELISA, 24 h); format: cell-based; settings: 24 h incubation
Description: Induction of cytokines from whole blood after treatment and incubation for 24 h. For all figures statistical analyses was made using students T-test, *p<0.05, **p<0.01, ***p<0.005, n=8-10. Test samples were the free TLR7 agonist 1v270 (1v270), the PEGylated cationic formulation with the immune stimulating 1v270 TLR7 agonist (Cationic PEG 1v270 Lip), a non-targeting neutral PEGylated liposome with 1v270 TLR7 agonist (Neutral PEG 1v270 Lip) and a non-PEGylated cationic formulation with 1v270 (Cationic 1v270 Lip). Composition and properties can be seen in Table 1. RPMI is control sample only with addition of media and DMSO is a vehicle control as solvent for 1v270.
For targeting a liposome to monocytes and antigen presenting cells (APCs) for use in cancer immunotherapy, it is key to boost an appropriate immune response. To analyze this we examined the ability of TLR7 agonist containing liposomes to induce cytokine secretion after targeting as shown in FIG. 2 and example 4, after another 24 h incubation. […]
To determine the optimal content of 1v270 in cationic PEGylated liposomes, liposomes were prepared with 0, 1, 2.5, 5 and 7.5% 1v270 content. […] The liposomes were incubated as described in example 5 and cytokine secretion of anti-tumor cytokines IL-12p70 and IFNα was measured.

CCCCCCCC/C=C\CCCCCCCC(=O)OCC(COP(=O)(O)OCCNC(=O)c1ccc(Cn2c(=O)[nH]c3c(N)nc(OCCOC)nc32)cc1)OC(=O)CCCCCCC/C=C\CCCCCCCC (stereo not shown) [1v270, 2-(4-((6-amino-2-(2-methoxyethoxy)-8-oxo-7H-purin-9(8H)-yl)methyl)benzamido)ethyl 2,3-bis(oleoyloxy)propyl phosphate]
higher toxicity prediction than the cationic PEG 1v270 Lip (Balb c mice; AUC ratios, FIG. 4I, ratio not given): 8 fold | induction of IFNα in mouse plasma (Balb c mice; iv, 200 nmol/mouse, 2, 6 and 24 h): unable to induce IFNα at all; also recorded: no IFNα was measured | secretion of IL-6 ([1]; FIG. 3C): highest; also recorded: most potent | secretion of IL-10 ([1]; FIG. 3D): significantly higher levels

Reference: patent US20200163880A1, “CATIONIC LIPOSOMES” (DANMARKS TEKNISKE UNIVERSITET, priority 2017, published 2020)
